Results published in patent US20240300943A1, “NOVEL SALTS OF HETEROCYCLIC COMPOUND AS PROTEIN KINASE INHIBITOR AND USES THEREOF” (HK INNO.N CORPORATION, priority 2021, published 2024).

Experiments:
[1] = tested on: JAK1, 2; test: In vitro cell assay, JAK1, 2 (STAT phosphorylation ELISA); type: cell-based; settings: read-out: IC50, Cell Biology JAK1, 2
Experimental: (§1) UT-7/EPO cell is an erythroleukemic cell line which expresses an EPO receptor, and is frequently used in many previous studies as a model to assess EPO-induced STAT5 phosphorylation mediated by JAK1 and JAK2 activity. Accordingly, in order to evaluate the activity of JAK1 and JAK2, UT-7/EPO cells were prepared.
(§2) The test material was dissolved in DMSO, prepared at 10 mM, divided by 20 μL each, and stored at −20° C.
(§3) • EPO: 2000 U/0.5 mL of stock was divided by 50 μL each and stored under refrigeration. • IL-2: 200 μg/ml of stock was prepared, divided by 5 μL each, and stored, and then treated at 2 ng/ml. (IL-2 1 μg/ml=13000 U/ml) • IFN-alphaB2: […] of stock was diluted and used, and then treated to reach 30000 U/ml.
(§4) • UT-7/EPO cell assay: MEM-alpha (Gibco, cat #12561-056) was prepared to contain 5% FBS and 1% P/S before use. • NK-92 cell assay: A preparation was made to contain HBSS, 1% FBS and 1% P/S before use. • U2OS cell assay: A preparation was made to contain HBSS, 1% FBS and 1% P/S before use.
(§5) The cultured cells were centrifuged (1,000 rpm, 5 minutes) and washed with PBS. The size of cell lines and appropriate reaction concentration thereof were set and the cell lines were seeded in a 96-well plate at 1×10^5 to 10^6 cells/well (50 μL/well). […]

[2] = tested on: JAK1, 3; test: In vitro cell assay, JAK1, 3 (NK-92 cells, IL-2); type: cell-based; settings: NK92, read-out: IC50, Cell Biology JAK1, 3
Experimental: In addition, NK-92 cell is a natural killer cell line, which grows in an IL-2-dependent way, and is derived from peripheral blood mononuclear cells, and thus is suitable for evaluating the activity of JAK1 and JAK3 by IL-2. Thus, in order to evaluate the activity of JAK1 and JAK3, NK-92 cells were prepared.
as §2, §3, §4, §5

[3] = tested on: JAK1, Tyk2; test: Human whole blood assay, JAK1, Tyk2; type: cell-based; settings: cytokine-induced STAT phosphorylation
Experimental: (§6) A stock solution of Compound 1 obtained according to Preparation Example 1 was diluted with distilled water and then serially diluted at ⅕ with 4% DMSO. 5 μL of test material was added to 100 μL of whole blood collected using a 1.7 mL eppendorf tube, mixed, and incubated at 37° C. for 45 minutes.
(§7) IL-6 (10 μg/ml) was diluted with 0.1% BSA/DW to reach 1 μg/mL each. 5 μL of IL-6 was added (at a final concentration of 50 ng/mL) and incubated at 37° C. for 15 minutes. At this time, 5 μL of DPBS was added as a non-stimulated control group. Lyse/fix buffer 5× was diluted 1× in distilled water and used. […]
(§8) For double staining of CD4 and pSTATI, anti-[…] and anti-pSTATI were mixed in a staining buffer and added to each of the samples. […] On the next day, the results were analyzed using FACSCanto II. […]
(§9) The numerical values analyzed by FlowJo were calculated to obtain IC50 values using GraphPad Prism 5 software (product name).
(§10) No treatment response (NTR) was set as a reference, and the degree of the phosphorylation of STAT induced by cytokines was converted into a relative ratio (% control group). A dose-response plot was obtained for each concentration-dependent activity of each test material using GraphPad Prism (version 5.0) and ICso values were calculated.

[4] = tested on: JAK1, 3; test: Human whole blood assay, JAK1, 3; type: cell-based; settings: cytokine-induced STAT phosphorylation
[5] = tested on: JAK2, Tyk2; test: Human whole blood assay, JAK2, Tyk2; type: cell-based; settings: cytokine-induced STAT phosphorylation
Experimental: as §6, §7, §8, §9, §10

[6] = target: JAK2 (Homo sapiens, UniProt O60674); test: In vitro cell assay, JAK2 (STAT phosphorylation ELISA); type: cell-based; set-up: endogenous in cells; host or cells: UT-7/EPO (inferred); settings: read-out: IC50, Cell Biology JAK2
Chain of JAK2 (O60674 whole entry, species assumed): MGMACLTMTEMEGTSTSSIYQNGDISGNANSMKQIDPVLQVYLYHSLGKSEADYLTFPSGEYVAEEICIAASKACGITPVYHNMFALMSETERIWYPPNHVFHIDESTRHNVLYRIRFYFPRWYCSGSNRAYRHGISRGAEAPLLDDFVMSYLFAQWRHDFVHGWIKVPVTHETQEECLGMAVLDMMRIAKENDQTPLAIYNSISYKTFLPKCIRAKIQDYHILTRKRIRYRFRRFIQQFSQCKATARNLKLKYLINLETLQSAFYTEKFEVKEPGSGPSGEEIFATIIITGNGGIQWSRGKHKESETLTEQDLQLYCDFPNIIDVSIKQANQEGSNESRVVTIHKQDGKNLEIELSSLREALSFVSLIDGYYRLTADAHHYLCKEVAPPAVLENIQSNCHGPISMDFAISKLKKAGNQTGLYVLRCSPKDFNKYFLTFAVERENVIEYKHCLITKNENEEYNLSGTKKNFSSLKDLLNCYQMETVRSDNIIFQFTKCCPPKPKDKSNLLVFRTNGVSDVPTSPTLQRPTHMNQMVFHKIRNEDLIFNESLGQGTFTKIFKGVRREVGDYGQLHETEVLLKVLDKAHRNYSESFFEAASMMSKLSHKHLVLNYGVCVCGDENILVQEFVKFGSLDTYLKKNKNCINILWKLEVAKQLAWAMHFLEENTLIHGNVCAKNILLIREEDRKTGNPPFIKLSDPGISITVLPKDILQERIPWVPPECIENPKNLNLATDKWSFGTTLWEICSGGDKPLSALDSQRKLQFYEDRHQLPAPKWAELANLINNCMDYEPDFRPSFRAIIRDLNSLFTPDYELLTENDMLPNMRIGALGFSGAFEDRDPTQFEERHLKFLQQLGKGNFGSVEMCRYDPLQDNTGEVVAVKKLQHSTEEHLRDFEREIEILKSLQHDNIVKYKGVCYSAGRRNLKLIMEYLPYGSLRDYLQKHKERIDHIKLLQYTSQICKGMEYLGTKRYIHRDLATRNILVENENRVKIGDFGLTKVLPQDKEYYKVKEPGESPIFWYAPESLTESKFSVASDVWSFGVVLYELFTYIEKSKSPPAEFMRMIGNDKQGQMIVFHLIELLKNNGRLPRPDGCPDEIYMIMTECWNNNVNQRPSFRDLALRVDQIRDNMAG
Experimental: as §1, §2, §3, §4, §5

[7] = Measurement of water solubility; type: physicochemical; settings: saturated solution shaken at room temperature for 24 hours
Experimental: A liquid phase was taken out of the solution and filtered using a 0.22 μm PVDF filter. The filtered liquid phase was diluted 10-fold for LC analysis.
LC analysis was performed by the following method.

Structure (SMILES) | IC50 [1] | IC50 [2] | IC50 [3] | IC50 [4] | IC50 [5] | IC50 [6] | Water solubility [7]
C[C@@H]1CN(C(=O)CC#N)CC=C1c1cc(NC(=O)C2CC2)nc2[nH]ccc12 [Compound 1, (S)—N-(4-(1-(2-cyanoacetyl)-3-methyl-1,2,3,6-tetrahydropyridin-4-yl)-1H-pyrrolo[2,3-b]pyridin-6-yl)cyclopropanecarboxamide] | 18 nM | 163 nM | 168 nM | 544 nM | 3640 nM | 656 nM | –
C[C@@H]1CN(C(=O)CC#N)CC=C1c1cc(NC(=O)C2CC2)nc2[nH]ccc12 [Example 3, (S)—N-(4-(1-(2-cyanoacetyl)-3-methyl-1,2,3,6-tetrahydropyridin-4-yl)-1H-pyrrolo[2,3-b]pyridin-6-yl)cyclopropanecarboxamide] | – | – | – | – | – | – | 3900 µg/mL
